According to US5464617A, “β-lactam compounds” (Hoffmann-La Roche Inc., priority 1994, dated 1995):
In brackets after ≈: the same amount, converted by molar mass. Where a name gives a salt, the structure may show the parent alone.

Experiments:
[1] = system: Citrobacter freundii 1982; experiment: MIC in vitro of a 1:4 combination of ceftriaxone with a compound of formula I (Test D); type: cell-based; details: 1:4 combination of ceftriaxone with the compound; for MIC C. freundii 1982 (D): Table 4, test D; for MIC C. freundii 1982: Table 2
Method: The minimum inhibitory concentration in vitro ([…]) of a 1:4 combination of ceftriaxone with a compound of formula I against Citrobacter freundii 1982 was measured and compiled in Table 2 hereinafter.

E. coli 1346 = experiment: Antibacterial activity of the products per se, serial dilution method in liquid medium (Test E); type: cell-based; details: product per se; for MIC E. coli 1346 (E): Table 4, test E; for MIC E. coli 1346: Table 3, liquid medium
Source text: The antibacterial activity of the products per se is illustrated on the basis of Table 3 hereinafter, the minimum inhibitory concentration […] in vitro against E. coli 1346 being determined using the serial dilution method in liquid medium: […]

Compound	MIC C. freundii 1982 (D) [1]	MIC E. coli 1346 (E) (E. coli 1346)	MIC C. freundii 1982 [1]	MIC E. coli 1346 (E. coli 1346)
O=C(Cn1nnnc1SCC1=C(C(=O)O)N2C(=O)[C@H]3NC[C@@H](O1)[C@H]32)NC1CC1 [Example 29(g), (1aS,3aR,6bS)-5-(1-(cyclopropyl-carbamoylmethyl)-1H-tetrazol-5-ylsulphanylmethyl)-1-oxo-1,1a,2,3,3a,6b-hexahydro-4-oxa-2,6a-diazacyclobut[cd]indene-6-carboxylic acid]	8 µg/mL	8 µg/mL (≈ 19.6 µM)		
CC(=O)N1C[C@H]2SC(CSc3ccncc3)=C(C(=O)O)N3C(=O)[C@@H]1[C@@H]23 [42(b), (1aS,3aR,6bS)-2-Acetyl-1-oxo-5-(pyridin-4-ylsulphanylmethyl)-4-thia-1,1a,2,3,3a,6b-hexahydro-2,6a-diazacyclobut[cd]indene-6-carboxylic acid sodium salt]	2 µg/mL	0.5 µg/mL		
Cn1nnnc1SCC1=C(C(=O)O)N2C(=O)[C@@H]3[C@H]2[C@H](C1)CN3C(=O)Nc1ccc(C(N)=O)cc1 [18(b), (1aS,3aR,6bR)-2-(4-Carbamoyl-phenylcarbamoyl)-5-(1-methyl-1H-tetrazol-5-ylsulphanylmethyl)-1-oxo-1a,2,3,3a,4,6b-hexahydro-1H-2,6a-diazacyclobut[cd]indene-6-carboxylic acid sodium salt]			0.25 µg/mL	32 µg/mL
Cn1nnnc1SCC1=C(C(=O)O)N2C(=O)[C@@H]3[C@H]2[C@@H](CN3C(=O)Nc2ccc(O)cc2)S1 [41(d), (1aS,3aR,6bS)-2-(4-Hydroxy-phenylcarbamoyl)-5-(1-methyl-1H-tetrazol-5-ylsulphanylmethyl)-1-oxo-4-thia-1,1a,2,3,3a,6b-hexahydro-2,6a-diazacyclobut[cd]indene-6-carboxylic acid sodium salt]	0.5 µg/mL	> 32 µg/mL		
NC(=O)Cn1nnnc1SCC1=C(C(=O)O)N2C(=O)[C@H]3NC[C@@H](C1)[C@H]32 [Example 69, (1aS,3aR,6 bR)-5-(1-Carbamoylmethyl-1H-tetrazol-5-ylsulphanylmethyl)-1-oxo-1a,2,3,3a,4,61>hexahydro-1H-2,6a-diazacyclobut[cd]indene-6-carboxylic acid trifluoroacetate]	0.5 µg/mL	2 µg/mL		
C=CCOC(=O)N1C[C@H]2OC(CSc3nnnn3C)=C(C(=O)O)N3C(=O)[C@@H]1[C@@H]23 [29(e) Byproduct]	1 µg/mL	4 µg/mL (≈ 9.79 µM)		
NC(=O)OCC1=C(C(=O)O)N2C(=O)[C@@H]3[C@H]2[C@H](C1)CN3C(=O)NCc1ccc(O)cc1 [27(h), (1aS,3aR,6bR)-5-Carbamoyloxymethyl-2-(4-hydroxybenzylcarbamoyl)-1-oxo-1a,2,3,3a,4,6b-hexahydro-1H-2,6a-diaza-cyclobut[cd]indene-6-carboxylic acid sodium salt]	0.25 µg/mL	> 32 µg/mL		
CC(=O)N1C[C@H]2CC(CSc3nnc(C)s3)=C(C(=O)O)N3C(=O)[C@@H]1[C@@H]23 [65(a), (1aS,3aR,6bR)-2-Acetyl-5-(5-methyl-1,3,4-thiadiazol-2-ylsulphanylmethyl)-1-oxo-1a,2,3,3a,4,6b-hexahydro-1H-2,6a-diazacyclobut[cd]indene-6-carboxylic acid sodium salt]	1 µg/mL	0.5 µg/mL		
CC(=O)N1C[C@H]2CC(CSc3nc[nH]n3)=C(C(=O)O)N3C(=O)[C@@H]1[C@@H]23 [76(a), (1aS,3aR,6bR)-2-Acetyl-1-oxo-5-(1H-1,2,4-triazol-3-ylsulphanylmethyl)-1a,2,3,3a,4,6b-hexahydro-1H-2,6a-diazacyclobut[cd]indene-6-carboxylic acid sodium salt]	1 µg/mL	2 µg/mL		
NC(=O)OCC1=C(C(=O)O)N2C(=O)[C@@H]3[C@H]2[C@H](C1)CN3C(=O)CNc1ccccc1 [58(h), (1aS,3aR,6bR)-5-Carbamoyloxymethyl-1-oxo-2-phenylaminoacetyl-1a,2,3,3a,4,6b-hexahydro-1 H-2,6a-diazacyclobut[cd]indene-6-carboxylic acid sodium salt]	1 µg/mL	32 µg/mL		
CC(=O)N1C[C@H]2CC(COC(=O)NCc3ccc(O)cc3)=C(C(=O)O)N3C(=O)[C@@H]1[C@@H]23 [102(a), (1aS,3aR,6bR)-2-Acetyl-5-[(4-hydroxy-benzyl)-carbamoyloxymethyl]-1-oxo-1a,2,3,3a,4,6b-hexahydro-1H-2,6a-diazacyclobut[cd]indene-6-carboxylic acid sodium salt]	2 µg/mL	0.5 µg/mL		
CC(=O)N1C[C@H]2CC(CSc3nnnn3CC(=O)Nc3ccc(O)cc3)=C(C(=O)O)N3C(=O)[C@@H]1[C@@H]23 [78(a), (1aS,3aR,6bR)-2-Acetyl-5-[1-(4-hydroxy-phenylcarbamoylmethyl)-1H-tetrazol-5-ylsulphanylmethyl]-1-oxo-1a,2,3,3a,4,6b-hexahydro-1H-2,6a-diazacyclobut[cd]indene-6-carboxylic acid sodium salt]	0.5 µg/mL	1 µg/mL		
Cc1nnc(SCC(=O)N2C[C@H]3CC(COC(N)=O)=C(C(=O)O)N4C(=O)[C@@H]2[C@@H]34)s1 [Example 58(e), (1aS,3aR,6bR)-5-Carbamoyloxymethyl-2-(5-methyl-1,3,4-thiadiazol-2-ylsulphanylacetyl)-1-oxo-1a,2,3,3a,4,6b-hexahydro-1H-2,6a-diazacyclobut[cd]indene-6-carboxylic acid sodium salt]	0.25 µg/mL	8 µg/mL		
CC(=O)N1C[C@H]2CC(CN=[N+]=[N-])=C(C(=O)O)N3C(=O)[C@@H]1[C@@H]23 [83(a), (1aS,3aR,6bR)-2-Acetyl-5-azidomethyl-1-oxo-1a,2,3,3a,4,6b-hexahydro-1H-2,6a-diazacyclobut[cd]indene-6-carboxylic acid sodium salt]	0.5 µg/mL	2 µg/mL		
CC(=O)N1C[C@H]2CC(Sc3nnc(N)s3)=C(C(=O)O)N3C(=O)[C@@H]1[C@@H]23 [3(ae), (1aS,3aR,6bR)-2-Acetyl-5-(5-amino-1,3,4-thiadiazol-2-ylsulphanyl)-1-oxo-1a,2,3,3a,4,6b-hexahydro-1H-2,6a-diazacyclobut[cd]indene-6-carboxylic acid sodium salt]	4 µg/mL	4 µg/mL		
Cc1nnc(SCC2=C(C(=O)O)N3C(=O)[C@@H]4[C@H]3[C@@H](CN4C(=O)Nc3ccc(O)cc3)S2)s1 [41(c), (1aS,3aR,6bS)-2-(4-Hydroxy-phenylcarbamoyl)-5-(5-methyl-1,3,4-thiadiazol-2-ylsulphanylmethyl)-1-oxo-4-thia-1,1a,2,3,3a,6b-hexahydro-2,6a-diazacyclobut[cd]indene-6-carboxylic acid sodium salt]	1 µg/mL	> 32 µg/mL		
CC(=O)N1C[C@H]2CC(CSc3cc[n+](CC(=O)[O-])cc3)=C(C(=O)O)N3C(=O)[C@@H]1[C@@H]23 [52(a), (1aS,3aR,6bR)-[4-(2-Acetyl-6-carboxy-1-oxo-1a,2,3,3a,4,6b-hexahydro-1H-2,6a-diaza-cyclobut[cd]inden-5-yl-methylsulphanyl)-pyridinio]-acetate bromoacetate (1:3.18) sodium salt (1:4.18)]	4 µg/mL	8 µg/mL		
O=C(NCC(F)(F)F)OCC1=C(C(=O)O)N2C(=O)[C@@H]3[C@H]2[C@H](C1)CN3C(=O)C(F)(F)F [92(b), (1aS,3aR,6bR)-1-Oxo-2-trifluoroacetyl-5-(2,2,2-trifluoroethylcarbamoyloxymethy)-1a,2,3,3a,4,6b-hexahydro-1H-2,6a-diazacyclobut[cd]indene-6-carboxylicacid sodium salt]	2 µg/mL	4 µg/mL		
CNC(=O)OCC1=C(C(=O)O)N2C(=O)[C@H]3NC[C@@H](C1)[C@H]32 [Example 97, (1aS,3aR,6bR)-5-Methylcarbamoyloxymethyl-1-oxo-1a,2,3,3a,4,6b-hexahydro-1H-2,6a-diazacyclobut[cd]indene-6-carboxylic acid trifluoroacetate]	1 µg/mL	4 µg/mL		
NC(=O)Cn1nnnc1SCC1=C(C(=O)O)N2C(=O)[C@H]3NC[C@@H](O1)[C@H]32 [Example 29(j), (1aS,3aR,6bS)-5-(1-Carbamoylmethyl-1H-tetrazol-5-ylsulphanylmethyl)-1-oxo-1,1a,2,3,3a,6b-hexahydro-4-oxa-2,6a-diazacyclobut[cd]indene-6-carboxylic acid]	4 µg/mL	8 µg/mL (≈ 21.8 µM)		
CS(=O)(=O)OC1=C(C(=O)O)N2C(=O)[C@@H]3[C@H]2[C@H](C1)CN3C(=O)NCc1cccs1 [9(c), (1aS,3aR,6bR)-5-Methylsulphonyloxy-2-(thien-2-ylmethylcarbamoyl)-1-oxo-1a,2,3,3a,4,6b-hexahydro-1H-2,6a-diazacyclobut[cd]indene-6-carboxylic acid sodium salt]			1 µg/mL	8 µg/mL
O=C(O)CC1=C(C(=O)O)N2C(=O)[C@@H]3[C@H]2[C@H](C1)CN3C(=O)Nc1ccc(O)cc1 [13(a), (1aS,3aR,6bR)-5-carboxymethyl-2-(4-hydroxy-phenycarbamoyl)-1-oxo-1a,2,3,3a,4,6b-hexahydro-1H-2,6a-diazacyclobut[cd]indene-6-carboxylic acid sodium salt]			1 µg/mL	4 µg/mL
O=C(O)C1=C(CSc2ccncc2)O[C@@H]2CN[C@@H]3C(=O)N1[C@@H]32 [Example 29(b), (1aS,3aR,6bS)-1-Oxo-5-(pyridin-4-ylsulphanylmethyl)-1,1a,2,3,3a,6b-hexahydro-4-oxa-2,6a-diazacyclobut[cd]indene-6-carboxylic acid]	2 µg/mL	> 16 µg/mL		
